IC50, GI50 and inhibition data for eight molecules are collected here from patent publication US20230066011A1, “PYRROLOPYRIMIDINE DERIVATIVE, AND PHARMACEUTICAL COMPOSITION FOR PREVENTING OR TREATING PROTEIN KINASE-RELATED DISEASE COMPRISING SAME AS ACTIVE INGREDIENT” (VORONOI CO., LTD., priority 2019, published 2023).

The target of one experiment is T1, human GST-DYRK1A (Homo sapiens, UniProt Q13627).
T1 construct: purified human GST-DYRK1A (full length, Thermo Scientifics) enzyme; purchased Thermo Scientifics
The experiment is described as follows: GST-DYRK1A enzyme inhibition, ADP-Glo kinase assay. Type of experiment: biochemical. The conditions noted are these: ATP 10 μM, GST-DYRK1A full length, read-out: DYRK1 IC50. The method, boiled down:
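Full-length enzyme (10 ng) was incubated with 10 μM ATP and a specific substrate for 1 h at 25 °C in 40 mM Tris-HCl pH 7.4, 20 mM MgCl2, 0.5 mg/mL BSA, 50 μM DTT. Luminescence was read against a solvent control, and IC50 values were derived from 3 data sets.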

For another experiment, the target named is T2, human GST-CLK1 (Homo sapiens, UniProt P49759).
T2 construct: purified human GST-CLK1 (129-end, SignalChem) enzyme; purchased SignalChem
The experiment is described as follows: GST-CLK1 enzyme inhibition, ADP-Glo kinase assay. The experiment is classed as biochemical. The conditions noted are these: ATP 10 μM, GST-CLK1 129-end. The gist of the method:
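ADP-Glo luminescence read-out, relative to untreated solvent control, gave IC50 (nM) from triplicate data sets. Reactions ran an hour at 25° C with 3 ng GST-CLK1 (residues 129-end), 10 μM ATP and specific substrate in Tris-HCl pH 7.4 buffer with MgCl2, BSA and DTT.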

The test system of the next experiment is MDA-MB-231 cell line. Nature of the experiment: Inhibition of proliferation of MDA-MB-231 cancer cells (Cell Titer-Glo). Type of experiment: cell-based. The note with it: Homo sapiens, 72 hours. The method, boiled down: (§1)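 Growth inhibition over 72 h: cells seeded at 2,000/well and dosed at eleven 3-fold-spaced final concentrations from 10.000000 μM. Read-out is ATP luminescence (Cell Titer-Glo, 10 min, room temperature), with GI50 derived from it.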

Another experiment relates to SHP-77. Nature of the experiment: Inhibition of proliferation of SHP-77 cancer cells (Cell Titer-Glo). The experiment is classed as cell-based. The conditions noted are these: Homo sapiens, SHP77, 72 hours. The gist of the method: as §1
The target in the next experiment is T3, TTK (Homo sapiens, UniProt P33981).
T3 sequence (P33981 1-857): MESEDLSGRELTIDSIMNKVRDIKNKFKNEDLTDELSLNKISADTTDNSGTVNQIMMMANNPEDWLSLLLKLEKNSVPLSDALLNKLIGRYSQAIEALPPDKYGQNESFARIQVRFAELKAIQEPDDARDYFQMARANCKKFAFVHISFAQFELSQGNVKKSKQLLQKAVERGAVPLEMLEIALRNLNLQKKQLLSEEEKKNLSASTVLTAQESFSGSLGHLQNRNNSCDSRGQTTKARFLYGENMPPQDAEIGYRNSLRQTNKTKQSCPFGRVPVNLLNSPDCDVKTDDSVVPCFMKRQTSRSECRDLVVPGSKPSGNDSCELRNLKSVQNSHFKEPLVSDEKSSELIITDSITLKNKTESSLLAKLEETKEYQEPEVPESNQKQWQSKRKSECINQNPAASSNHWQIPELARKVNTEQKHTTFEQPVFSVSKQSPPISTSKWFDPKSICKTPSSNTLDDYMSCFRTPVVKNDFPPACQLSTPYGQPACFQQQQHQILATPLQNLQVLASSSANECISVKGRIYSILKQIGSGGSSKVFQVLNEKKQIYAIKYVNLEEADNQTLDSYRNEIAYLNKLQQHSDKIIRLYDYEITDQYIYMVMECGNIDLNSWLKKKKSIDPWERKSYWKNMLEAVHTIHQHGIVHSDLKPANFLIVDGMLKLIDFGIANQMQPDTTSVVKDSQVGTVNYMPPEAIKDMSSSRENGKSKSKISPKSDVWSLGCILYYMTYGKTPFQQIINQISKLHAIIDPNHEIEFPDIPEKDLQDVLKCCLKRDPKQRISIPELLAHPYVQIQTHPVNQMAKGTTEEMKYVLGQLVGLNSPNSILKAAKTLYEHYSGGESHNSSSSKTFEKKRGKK
Nature of the experiment: TTK enzyme inhibition, ADP-Glo kinase assay. The experiment is classed as biochemical. On the set-up: purchased SignalChem T20-10G. The conditions noted are these: ATP 5 μM. The procedure: To evaluate an inhibitory activity of the compound according to the present invention against LRRK2, LRRK2 (G2019S), DYRK1, CLK1, and TTK kinases, experiments were performed as follows.
Each of the Example compounds was reacted with a purified human TTK (SignalChem #T20-10G) enzyme to evaluate an ability to inhibit an enzyme using a method as described below. A composition of 40 mM Tris-HCl (pH 7.4), 20 mM MgCl2, 0.1 mg/mL BSA (a 5× kinase buffer, SignalChem #K03-09), and 50 μM DTT (SignalChem #D86-09B) was used as a reaction buffer, and all reactions of test substances were performed in the reaction buffer. Each of the compounds was diluted […] from a 10 mM DMSO stock using a serial dilution method, and enzyme activities were measured at final compound concentrations of 1, 0.333333, 0.111111, 0.037037, 0.012346, 0.004115, 0.001372, 0.000457, 0.000152, 0.000051, and 0.000017 μM. In the test, purified ATP (5 μM, Promega #V6930) and an MBP enzyme substrate (0.2 μg, SignalChem M42-51N) were reacted with a human TTK (7.5 ng) enzyme at 25° C. for 4 hours, and the enzyme activities were then determined using an in vitro ADP-Glo™ kinase assay (Promega #V6930). An enzyme-activity reaction solution, an ADP-Glo reaction solution, and an enzyme-ability detection solution were reacted at a ratio of 2:2:1 to measure a degree of inhibition of the enzyme activity with luminescence. The degree of inhibition of the enzyme activity according to the treatment concentration of each of the compounds was calculated based on the fluorescence of the enzyme activity of the solvent control which was not treated with the compound. In this case, the concentration of each of the compounds inhibiting 50% of the enzyme activity was determined to be an IC50 (nM) value, and calculated using Prism (Version 8.2 GraphPad) software.

A further experiment has as its system MDA-MB-468 cell line. The experiment is described as follows: Inhibition of proliferation of MDA-MB-468 cancer cells (Cell Titer-Glo). The conditions noted are these: Homo sapiens, MDA-MB-468, 72 hours. The experiment is classed as cell-based. The method, boiled down: as §1
A further experiment has as its system IL-6. Nature of the experiment: Inhibition of LPS-induced IL-6 secretion of THP-1 monocytes (ELISA). The experiment is classed as cell-based, human. The note with it: Homo sapiens, THP-1; compound 0.5 μM, LPS 500 ng/mL, 24 hours; read-out: THP1/IL6 (% inhib). The procedure: To evaluate an inhibitory effect on cytokine secretion of monocytes, THP-1 cells (ATCC, #TIB-202) as a human-derived monocyte line were cultured in an RPMI-1640 (Hyclone, SH30027.01) medium supplemented with 10% fetal bovine serum (Hyclone, SH30084.03), 1% penicillin streptomycin (Welgene, LS202-02), and 50 μM 2-mercaptoethanol (Gibco, #21985023). In the test, the cells were seeded in a 48-well plate (SPL, #30048) at a density of 1.5 to 2×10^5 cells/250 μL per well, and cultured at 37° C. for 16 hours in a 5% CO2 incubator. Thereafter, the compound was diluted with DMSO so that the final concentration of the compound was 0.5 μM. Then, the cells were treated with the diluted compound before an hour of treatment with lipopolysaccharides (LPS) (Sigma, #L6529). After the treatment with the compound, the cells were treated with LPS so that the final concentration was 500 ng/mL. Then, a cell culture broth was collected after 24 hours of culture, and levels of cytokine IL-6 (R&D Systems, #D6050) and TNF-α (R&D Systems, #DTA00D) comprised in the culture broth were measured using respective ELISA kits. After an experiment was performed according to the manufacturer's guidelines, cell analysis was performed by measuring the optical density at 450 nm using a microplate reader.

The target in another experiment is LRRK2 (Homo sapiens, UniProt Q5S007). Nature of the experiment: LRRK2 enzyme inhibition, ADP-Glo kinase assay. The conditions noted are these: ATP 10 μM. Type of experiment: biochemical. On the set-up: purchased Invitrogen PR8604B. The gist of the method: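 ADP-Glo luminescent read-out of ADP formed by purified human LRRK2 enzyme (25 ng), 10 μM ATP, 0.2 μg substrate, 25° C for 2 h, Tris-HCl pH 7.4 buffer with MgCl2, BSA, DTT. Inhibition versus untreated solvent control over twelve final concentrations (50 μM downward) gives IC50.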

For a further experiment, the target named is LRRK2 (G2019S) (Homo sapiens, UniProt Q5S007, G2019S). The experiment is described as follows: LRRK2 G2019S enzyme inhibition, ADP-Glo kinase assay. Type of experiment: biochemical. The conditions noted are these: ATP 25 μM. On the set-up: purchased SignalChem L10-12GG. The method, boiled down:
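IC50 derived from luminescent ADP-Glo readout against untreated solvent control, twelve final compound concentrations from 50 μM downward. Reaction: recombinant human LRRK2 G2019S enzyme, 25 μM ATP, substrate, pH 7.4 Tris buffer with MgCl2/BSA/DTT, 25° C. for 2 hours.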

T2 sequence (P49759 129-484 limits assumed): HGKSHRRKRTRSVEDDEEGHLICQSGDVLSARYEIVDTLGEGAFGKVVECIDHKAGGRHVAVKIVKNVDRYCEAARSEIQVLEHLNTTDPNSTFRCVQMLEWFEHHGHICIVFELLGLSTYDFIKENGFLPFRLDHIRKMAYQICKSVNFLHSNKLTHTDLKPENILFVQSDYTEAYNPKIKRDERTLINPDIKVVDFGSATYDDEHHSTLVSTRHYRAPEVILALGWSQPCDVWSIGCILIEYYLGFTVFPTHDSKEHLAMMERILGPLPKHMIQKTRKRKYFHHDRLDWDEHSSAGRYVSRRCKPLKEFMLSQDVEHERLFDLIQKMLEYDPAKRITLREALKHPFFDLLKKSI
Sequence of LRRK2 (Q5S007 970-2527 limits assumed): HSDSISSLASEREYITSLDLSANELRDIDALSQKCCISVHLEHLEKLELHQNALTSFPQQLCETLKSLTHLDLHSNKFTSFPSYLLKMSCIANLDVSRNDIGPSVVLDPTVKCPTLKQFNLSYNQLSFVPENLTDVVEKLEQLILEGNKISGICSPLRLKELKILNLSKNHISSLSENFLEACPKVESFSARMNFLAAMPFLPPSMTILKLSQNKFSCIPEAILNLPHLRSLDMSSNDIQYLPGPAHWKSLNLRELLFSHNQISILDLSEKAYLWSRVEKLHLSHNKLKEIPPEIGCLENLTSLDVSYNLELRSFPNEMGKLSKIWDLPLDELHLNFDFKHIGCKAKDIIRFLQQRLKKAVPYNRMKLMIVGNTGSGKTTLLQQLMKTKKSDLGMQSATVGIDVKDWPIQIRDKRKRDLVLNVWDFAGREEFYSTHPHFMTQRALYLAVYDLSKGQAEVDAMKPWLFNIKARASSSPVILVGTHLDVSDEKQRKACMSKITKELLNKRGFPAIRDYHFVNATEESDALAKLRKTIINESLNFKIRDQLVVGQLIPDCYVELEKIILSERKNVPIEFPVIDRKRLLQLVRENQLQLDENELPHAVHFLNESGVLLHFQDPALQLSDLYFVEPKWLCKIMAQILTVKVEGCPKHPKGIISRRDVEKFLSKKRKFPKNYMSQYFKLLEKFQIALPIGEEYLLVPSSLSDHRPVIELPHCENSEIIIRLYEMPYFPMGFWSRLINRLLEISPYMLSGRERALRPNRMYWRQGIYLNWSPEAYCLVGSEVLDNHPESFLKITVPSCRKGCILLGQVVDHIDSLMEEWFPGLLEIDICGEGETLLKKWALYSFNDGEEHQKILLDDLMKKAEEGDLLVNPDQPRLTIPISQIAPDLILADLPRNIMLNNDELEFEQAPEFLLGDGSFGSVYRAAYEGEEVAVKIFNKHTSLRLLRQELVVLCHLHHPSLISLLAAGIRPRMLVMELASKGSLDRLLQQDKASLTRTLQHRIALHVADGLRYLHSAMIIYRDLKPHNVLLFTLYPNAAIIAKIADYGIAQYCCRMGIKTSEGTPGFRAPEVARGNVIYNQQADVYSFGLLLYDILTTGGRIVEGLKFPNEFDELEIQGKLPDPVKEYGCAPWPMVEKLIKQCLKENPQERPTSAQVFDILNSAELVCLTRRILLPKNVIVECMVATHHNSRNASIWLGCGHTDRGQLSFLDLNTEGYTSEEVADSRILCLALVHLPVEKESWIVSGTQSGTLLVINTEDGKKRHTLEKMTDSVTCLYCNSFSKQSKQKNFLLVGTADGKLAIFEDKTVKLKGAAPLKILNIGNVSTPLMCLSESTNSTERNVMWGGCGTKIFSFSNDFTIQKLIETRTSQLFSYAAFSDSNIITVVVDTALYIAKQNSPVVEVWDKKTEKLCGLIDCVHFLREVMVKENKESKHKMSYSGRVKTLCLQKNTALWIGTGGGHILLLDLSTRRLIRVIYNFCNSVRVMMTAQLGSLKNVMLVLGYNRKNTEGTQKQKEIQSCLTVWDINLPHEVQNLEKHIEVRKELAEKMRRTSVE
Sequence of LRRK2 (G2019S) (Q5S007 970-2527 G2019S limits assumed): as the sequence (Q5S007 970-2527 limits assumed) above, with G1050S counted along it

As to `CC[C@@H](C)Nc1nc(Nc2ccc(S(=O)(=O)N3CCOCC3)cc2OC)nc2[nH]cc(C#N)c12` [Example 67, (R)-4-(sec-butylamino)-2-((2-methoxy-4-(morpholinosulfonyl)phenyl)amino)-7H-pyrrolo[2,3-d]pyrimidine-5-carbonitrile], the IC50 on human GST-DYRK1A was 301 to 1000 nM; on human GST-CLK1, 301 to 1000 nM; on TTK it was below 100 nM. Further, the GI50 with MDA-MB-231 cell line and in the experiment on SHP-77 was below 50 nM each time.

Regarding `N#Cc1c[nH]c2nc(Nc3ccc(C(=O)N4CCN(C5CC5)CC4)c4c3OCCO4)nc(NC3CCCC3)c12` [Example 148, 4-(cyclopentylamino)-2-((8-(4-cyclopropylpiperazine-1-carbonyl)-2,3-dihydrobenzo[b][1,4]dioxin-5-yl)amino)-7H-pyrrolo[2,3-d]pyrimidine-5-carbonitrile], the IC50 was 301 to 1000 nM at human GST-DYRK1A, 301 to 1000 nM on human GST-CLK1 and below 100 nM against TTK. Also, the GI50 with MDA-MB-231 cell line and in the experiment on MDA-MB-468 cell line was 101 to 300 nM in each case.

Consider `N#Cc1c[nH]c2nc(Nc3ccc(C(=O)N4CCCC4)c4c3OCCO4)nc(NC3CCCCC3)c12` [Example 149, 4-(cyclohexylamino)-2-((8-(pyrrolidine-1-carbonyl)-2,3-dihydrobenzo[b][1,4]dioxin-5-yl)amino)-7H-pyrrolo[2,3-d]pyrimidine-5-carbonitrile], for which the IC50 was 301 to 1000 nM at human GST-DYRK1A, 301 to 1000 nM at human GST-CLK1 and below 100 nM on TTK. Moreover, the GI50 in the experiment with MDA-MB-231 cell line was below 50 nM; in the experiment on MDA-MB-468 cell line, 51 to 100 nM.

Take `N#Cc1c[nH]c2nc(Nc3ccc(C(=O)N4CCOCC4)c4c3OCO4)nc(NC3CCCCC3)c12` [Example 150, 4-(cyclohexylamino)-2-((7-(morpholine-4-carbonyl)benzo[d][1,3]dioxol-4-yl)amino)-7H-pyrrolo[2,3-d]pyrimidine-5-carbonitrile]: the values for the IC50 at human GST-DYRK1A, against human GST-CLK1 and at TTK were 301 to 1000 nM, 301 to 1000 nM and below 100 nM, respectively. Besides, the GI50 in the experiment on MDA-MB-231 cell line and with MDA-MB-468 cell line was 51 to 100 nM each time.

In the case of `CCN1CCP(=O)(c2ccc(Nc3nc(NC4CCCCC4)c4c(C#N)c[nH]c4n3)c(OC)c2)CC1` [Example 151, 4-(cyclohexylamino)-2-((4-(1-ethyl-4-oxido-1,4-azaphosphinan-4-yl)-2-methoxyphenyl)amino)-7H-pyrrolo[2,3-d]pyrimidine-5-carbonitrile], the values for the IC50 on human GST-DYRK1A, against human GST-CLK1 and against TTK were 301 to 1000 nM, 101 to 300 nM and below 100 nM, respectively. The GI50 was in the range of 101 to 300 nM in the experiment with MDA-MB-231 cell line and 51 to 100 nM in the experiment on MDA-MB-468 cell line.

For `N#Cc1c[nH]c2nc(Nc3ccc(C(=O)N4CCOCC4)c4c3OCO4)nc(NC3CCCC3)c12` [Example 152, 4-(cyclopentylamino)-2-((7-(morpholine-4-carbonyl)benzo[d][1,3]dioxol-4-yl)amino)-7H-pyrrolo[2,3-d]pyrimidine-5-carbonitrile], the half-inhibitory concentration (IC50) at human GST-DYRK1A was 101 to 300 nM; on human GST-CLK1, below 100 nM; against TTK, below 100 nM. Moreover, the GI50 in the experiment with MDA-MB-231 cell line and with MDA-MB-468 cell line was 51 to 100 nM in each case.

`CCNc1nc(Nc2ccc(C(=O)N3CCOCC3)c3c2OCO3)nc2[nH]cc(C(F)(F)F)c12` [Example 212, (7-((4-(ethylamino)-5-(trifluoromethyl)-7H-pyrrolo[2,3-d]pyrimidin-2-yl)amino)benzo[d][1,3]dioxol-4-yl)(morpholino)methanone]: the IC50 at human GST-DYRK1A, against human GST-CLK1, against LRRK2 and against LRRK2 (G2019S) was below 100 nM in each case. Moreover, the inhibition at 0.5 µM with IL-6 was determined as 12.6%.

For `COCCNc1nc(Nc2ccc(C(=O)N3C[C@@H]4C[C@H]3CO4)c3c2OCCO3)nc2[nH]cc(C(F)(F)F)c12` [Example 410, ((LS,4S)-2-oxa-5-azabicyclo[2.2.1]heptan-5-yl)(8-((4-((2-methoxy-ethyl)amino)-5-(trifluoromethyl)-7H-pyrrolo[2,3-d]pyrimidin-2-yl)amino)-2,3-dihydrobenzo[b] [1,4]dioxin-5-yl)methanone], the concentration for half-maximal inhibition (IC50) on human GST-DYRK1A, at human GST-CLK1 and against LRRK2 was below 100 nM each time. For the same molecule, the inhibition at 0.5 µM with IL-6 was determined as 17.8%.
